Reference: patent publication US8506930B2, “Compounds having affinity for amyloid” (Nihon Medi-Physics Co., Ltd., priority 2006, dated 2013)

How the values were obtained:
[1] = system: Salmonella typhimurium TA98 and TA100; experiment: Reverse mutation test (Ames test), overall judgment; assay type: cell-based; conditions: TA98 and TA100, with and without S9mix
Experimental: (§1) In order to examine mutagenicity of Compound I-1, I-2, I-4 and I-5, reverse mutation test using Salmonella typhimurium TA98 and TA100 (hereinafter referred to as Ames test) was conducted.
(§2) The test was conducted without addition of S9mix and with addition of S9mix. Dimethylsulfoxide was used as a negative control. A positive control was 2-(2-furyl)-3-(5-nitro-2-furyl)acrylamide in case S9mix was not added, and 2-aminoanthracene in case S9mix was added.
(§3) The amount of each sample to be added to the test plate was 7 dosages (geometric ratio 4) with the maximum dose being 1250 μg/plate for Compounds I-1 and I-5, and 7 dosages (geometric ratio 3) with the maximum dose being 5000 μg/plate for Compounds I-2 and I-4. After a sample to be examined and a strain (TA98 or TA100), or a sample to be examined, S9mix and the strain were mixed together, the mixture was multilayered using soft agar on a medium of a test plate, and then incubated at 37° C. for 48 hours.

[2] = system: Salmonella typhimurium TA100; experiment: Reverse mutation test (Ames test), TA100; assay type: cell-based
Experimental: as §1, §2, §3

[3] = system: Salmonella typhimurium TA98; experiment: Reverse mutation test (Ames test), TA98; assay type: cell-based
Experimental: as §1, §2, §3

[4] = system: bone marrow cells of Crlj:CD1(ICR) male mouse; experiment: Micronucleus test; assay type: in vivo; conditions: for appearance frequency of MNPCE as compared to the negative control group: 24 and 48 hours after single administration
Experimental: In order to study mutagenicity (in vivo) of Compound I-4, induction of micronucleated polychromatic erythrocyte (hereinafter referred to as MNPCE) was examined using bone marrow cells of Crlj:CD1(ICR) male mouse.
0 mg/kg (negative control group), 250, 500, 1000 and 2000 mg/kg (test sample group) were set as doses for the test. Mice were sacrificed 24 and 48 hours after single oral administration, and bone marrow smear was prepared and observed. Further, a single dose of MMC at 2 mg/kg was abdominally administrated in positive control group, mice were sacrificed 24 hours after the administration, and then bone marrow smear was prepared and observed.
As statistical analysis, significance tests were conducted by Wilcoxon rank sum test for the appearance frequency of MNPCE and the ratio of polychromatic erythrocyte (hereinafter referred to as PCE) to the total red blood cell (hereinafter referred to as RBC) in each administration group concerning the test sample and positive control groups relative to the negative control group and concerning these groups relative to each other where the significance level was set to less than 5% and less than 1%, respectively.

[5] = Transferability into brain and clearance, Examples I-20 to I-21; assay type: in vivo, male Wistar rats; conditions: rats, intravenous injection, Table 1-7
Source text: Three animals were used for Experiment I-20 and Comparative Experiment I-9, and two animals were used for Experiment I-21 at the respective time points.

[6] = International Publication WO03/106439 pamphlet; cited from earlier work
[7] = normal mice, [125I]-labeled, cited from earlier work; for transfer into brain: 2 minutes after administration
[8] = system: Chinese Hamster fibroblast cell line (CHL/IU cell); experiment: Chromosome aberration test; assay type: cell-based; conditions: short-term treatment with or without S9 and 24-hour continuous treatment; 0.15-1.2 mg/mL
Experimental: In order to examine whether Compound I-4 can induce chromosome aberration, the chromosome aberration test was conducted using Chinese Hamster fibroblast cell line (CHL/IU cell) in a culture system with or without addition of S9 by short-term treatment process and in a 24-hour culture system by continuous treatment process. The addition amount of a sample to be tested was set to 1.2, 0.6, 0.3, and 0.15 mg/mL for all the respective culture systems.

With `FCCCOc1ccc(-c2cn3cc(I)cnc3n2)cc1` [Compound I-5, 2-[4′-(3″-fluoropropoxy)phenyl]-6-iodoimidazo[1,2-a]pyrimidine] the “judgment in the Ames test” value [1] was “negative”, the “Mutagenicity, TA100” value ([2]; With addition of S9mix) was “Negative” and the “Mutagenicity, TA100” value ([2]; Without addition of S9mix) was “Negative”. For the same compound, the “Mutagenicity, TA98” value ([3]; With addition of S9mix) was “Negative” and the “Mutagenicity, TA98” value ([3]; Without addition of S9mix) was “Negative”.

In the case of `CO[C@@]12[C@H](COC(N)=O)C3=C(C(=O)C(C)=C(N)C3=O)N1C[C@@H]1N[C@@H]12` [MMC, reference compound], the “appearance frequency of MNPCE as compared to the negative control group” value ([4]; mouse bone marrow) is reported as “significant increase”.

With `[18F]CCCOc1ccc(-c2cn3cc(Br)ccc3n2)cc1` [Compound I-8, 6-bromo-2-[4′-(3″-[^18F]fluoropropoxy)phenyl]imidazo[1,2-a]pyridine] the “Radioactive distribution in brain per unit weight, After 2 min.” value ([5]; 2 min.) was 1.20 % ID/g, the “Radioactive distribution in brain per unit weight, After 5 min.” value ([5]; 5 min.) was 0.75 % ID/g and the “Radioactive distribution in brain per unit weight, After 30 min.” value ([5]; 30 min.) was 0.18 % ID/g. For the same compound, the “Radioactive distribution in brain per unit weight, After 60 min.” value ([5]; 60 min.) was 0.12 % ID/g.

In the case of `CC(=C(C#N)C#N)c1ccc2cc(N(C)CCF)ccc2c1` [FDDNP, 2-(1-{6-[(2-fluoroethyl)(methyl)amino]-2-naphthyl}ethylidene)malononitrile], the “reverse mutation test result” value [6] is listed as “positive”.

For `CN(C)c1ccc(/C=C/c2ccc(I)cc2)cc1` [m-I-SB, (E)-4-dimethylamino-4′-iodostilbene], the transfer into brain [7] is given as “transferred into brain” and the “clearance from normal tissues” value [7] is given as “insufficient in clearance from normal tissues”.

With `FCCCOc1ccc(-c2cn3cc(Br)ccc3n2)cc1` [Compound I-1, 6-bromo-2-[4′-(3″-fluoropropoxy)phenyl]imidazo[1,2-a]pyridine] the “judgment in the Ames test” value [1] was “negative”, the “Mutagenicity, TA100” value ([2]; With addition of S9mix) was “Negative” and the “Mutagenicity, TA100” value ([2]; Without addition of S9mix) was “Negative”. For the same compound, the “Mutagenicity, TA98” value ([3]; With addition of S9mix) was “Negative” and the “Mutagenicity, TA98” value ([3]; Without addition of S9mix) was “Negative”.

In the case of `FCCOc1ccc(-c2cn3cc(I)ccc3n2)cc1` [Compound I-4, 2-[4′-(2″-fluoroethoxy)phenyl]-6-iodoimidazo[1,2-a]pyridine], the “judgment in the Ames test” value [1] is reported as “negative”, the “appearance frequency of cells having structural aberration or numerical aberration (diploid)” value [8] is reported as “comparable to that of the negative control group” and the “capability of inducing chromosome aberration (judgment)” value [8] is reported as “negative”. The “appearance frequency of MNPCE as compared to the negative control group” value ([4]; mouse bone marrow) was “no statistically significant difference”, the “ratio of PCE to RBC as compared to the negative control group” value ([4]; mouse bone marrow, 24 and 48 hours after single oral administration, 250-2000 mg/kg) was “no statistically significant difference” and the “mutagenicity (in vivo) judgment” value ([4]; single oral administration, 250-2000 mg/kg) was “negative”. For the same compound, the “Mutagenicity, TA100” value ([2]; With addition of S9mix) was “Negative”, the “Mutagenicity, TA100” value ([2]; Without addition of S9mix) was “Negative” and the “Mutagenicity, TA98” value ([3]; With addition of S9mix) was “Negative”. For the same compound, the “Mutagenicity, TA98” value ([3]; Without addition of S9mix) was “Negative”.

In the case of `CN(C)c1ccc(-c2nc3ccc(I)cc3o2)cc1` [IBOX, 6-iodo-2-[4′-(N,N-dimethylamino)phenyl]benzoxazole], the transfer into brain [7] is given as “transferred into brain” and the “clearance from normal tissues” value [7] is given as “insufficient in clearance from normal tissues”.

For `FCCCOc1ccc(-c2cn3cc(I)ccc3n2)cc1` [Compound I-2, 2-[4′-(3″-fluoropropoxy)phenyl]-6-iodoimidazo[1,2-a]pyridine], the “judgment in the Ames test” value [1] was “negative”, the “Mutagenicity, TA100” value ([2]; With addition of S9mix) was “Negative” and the “Mutagenicity, TA100” value ([2]; Without addition of S9mix) was “Negative”. The “Mutagenicity, TA98” value ([3]; With addition of S9mix) was “Negative” and the “Mutagenicity, TA98” value ([3]; Without addition of S9mix) was “Negative”.

For `CN(C)c1ccc(-c2nc3ccc(I)cc3s2)cc1` [TZDM, 6-iodo-2-[4′-(N,N-dimethylamino)phenyl]benzothiazole], the transfer into brain [7] is given as “transferred into brain” and the “clearance from normal tissues” value [7] is given as “insufficient in clearance from normal tissues”.
